In patent US8415469B2, “Compounds and methods for kinase modulation, and indications therefor” (Plexxikon Inc., priority 2005, dated 2013):
pIC50: −log10 of the molar value.

How the values were obtained:
Type in all cases: biochemical
c-Raf-1 = biological target: T1, c-Raf-1 (Homo sapiens, UniProt P04049); test: AlphaScreen kinase assay, c-Raf-1; settings: read-out: IC50, activity toward kinase c-Raf-1
T1 construct: purchased Upstate Biotechnology

Akt3 = Akt3 (Homo sapiens, UniProt Q9Y243); test: AlphaScreen kinase assay, Akt3; settings: read-out: IC50, activity toward kinase Akt3
Akt3, sequence (Q9Y243 whole entry): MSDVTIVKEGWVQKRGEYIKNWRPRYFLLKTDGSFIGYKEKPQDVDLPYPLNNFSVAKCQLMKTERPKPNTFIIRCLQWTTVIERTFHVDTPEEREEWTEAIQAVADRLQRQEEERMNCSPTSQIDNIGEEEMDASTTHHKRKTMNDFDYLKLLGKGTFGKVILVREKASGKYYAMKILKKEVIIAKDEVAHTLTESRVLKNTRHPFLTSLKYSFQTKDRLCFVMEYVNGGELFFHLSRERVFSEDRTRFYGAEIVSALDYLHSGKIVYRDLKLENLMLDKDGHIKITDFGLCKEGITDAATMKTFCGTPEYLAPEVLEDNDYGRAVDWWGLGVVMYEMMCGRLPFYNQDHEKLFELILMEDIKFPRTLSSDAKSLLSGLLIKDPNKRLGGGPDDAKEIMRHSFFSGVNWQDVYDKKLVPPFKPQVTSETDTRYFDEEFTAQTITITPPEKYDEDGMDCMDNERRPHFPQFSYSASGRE
Description: AlphaScreen assay was used to screen additional kinases. The assay is similarly dependent on the phosphorylation of a peptide substrate. In this assay, an antibody that recognizes phosphorylated substrate is bound to an acceptor bead. The peptide substrate is attached to biotin, which binds to a donor head that contains streptavidin. Thus phosphorylated substrate is bound by antibody and streptavidin, bringing the donor and acceptor heads into close proximity when kinase is not inhibited. The donor produces singlet oxygen which results in emission from the acceptor when they are in close proximity. Conversely, when kinase is inhibited, the donor and acceptor beads are not associated and the emission from the acceptor is reduced.
AlphaScreen assays were done using compounds dissolved in DMSO to a concentration of 20 mM. The compounds were diluted accordingly to the desired final concentrations in each sample well, using 1:3 serial dilution for a total of 8 concentration points.

Kit = biological target: T2, Kit (Homo sapiens, UniProt P10721); test: AlphaScreen kinase assay, Kit; settings: read-out: IC50, activity toward kinase Kit
T2 construct: P1332.N6 BI PTP KIT M552-K948-X COD; His6 (N); made in house; host or cells: E. coli (PTP1B co-expressed)

B-Raf = biological target: T3, B-Raf (Homo sapiens, UniProt P15056); test: AlphaScreen kinase assay, B-Raf; settings: read-out: IC50, activity toward kinase B-Raf
T3 construct: purchased Upstate Biotechnology
T3 sequence (P15056 whole entry): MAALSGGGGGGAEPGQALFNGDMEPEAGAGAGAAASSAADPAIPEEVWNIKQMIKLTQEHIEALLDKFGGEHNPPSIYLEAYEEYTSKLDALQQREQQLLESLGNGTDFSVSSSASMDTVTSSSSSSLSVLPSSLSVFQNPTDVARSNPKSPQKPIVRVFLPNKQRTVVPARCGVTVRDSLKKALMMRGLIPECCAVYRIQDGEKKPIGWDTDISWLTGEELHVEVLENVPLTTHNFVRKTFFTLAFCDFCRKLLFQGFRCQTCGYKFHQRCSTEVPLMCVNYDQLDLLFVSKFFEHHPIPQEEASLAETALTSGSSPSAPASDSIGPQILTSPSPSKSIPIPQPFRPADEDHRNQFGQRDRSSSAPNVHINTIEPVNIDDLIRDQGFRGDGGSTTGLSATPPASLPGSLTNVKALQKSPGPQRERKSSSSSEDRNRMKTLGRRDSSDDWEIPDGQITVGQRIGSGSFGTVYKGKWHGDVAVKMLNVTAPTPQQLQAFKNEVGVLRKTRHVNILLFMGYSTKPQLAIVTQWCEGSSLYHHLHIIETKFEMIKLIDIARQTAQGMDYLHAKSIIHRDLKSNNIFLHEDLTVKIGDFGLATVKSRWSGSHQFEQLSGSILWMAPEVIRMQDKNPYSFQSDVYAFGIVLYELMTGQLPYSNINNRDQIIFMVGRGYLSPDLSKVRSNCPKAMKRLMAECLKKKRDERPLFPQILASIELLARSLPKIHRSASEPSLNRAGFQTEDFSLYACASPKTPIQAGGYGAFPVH

Fms = biological target: T4, Fms (Homo sapiens, UniProt P07333); test: AlphaScreen kinase assay, Fms; settings: read-out: IC50, activity toward kinase Fms
T4 construct: purchased Upstate Biotechnology
T4 sequence (P07333 20-972): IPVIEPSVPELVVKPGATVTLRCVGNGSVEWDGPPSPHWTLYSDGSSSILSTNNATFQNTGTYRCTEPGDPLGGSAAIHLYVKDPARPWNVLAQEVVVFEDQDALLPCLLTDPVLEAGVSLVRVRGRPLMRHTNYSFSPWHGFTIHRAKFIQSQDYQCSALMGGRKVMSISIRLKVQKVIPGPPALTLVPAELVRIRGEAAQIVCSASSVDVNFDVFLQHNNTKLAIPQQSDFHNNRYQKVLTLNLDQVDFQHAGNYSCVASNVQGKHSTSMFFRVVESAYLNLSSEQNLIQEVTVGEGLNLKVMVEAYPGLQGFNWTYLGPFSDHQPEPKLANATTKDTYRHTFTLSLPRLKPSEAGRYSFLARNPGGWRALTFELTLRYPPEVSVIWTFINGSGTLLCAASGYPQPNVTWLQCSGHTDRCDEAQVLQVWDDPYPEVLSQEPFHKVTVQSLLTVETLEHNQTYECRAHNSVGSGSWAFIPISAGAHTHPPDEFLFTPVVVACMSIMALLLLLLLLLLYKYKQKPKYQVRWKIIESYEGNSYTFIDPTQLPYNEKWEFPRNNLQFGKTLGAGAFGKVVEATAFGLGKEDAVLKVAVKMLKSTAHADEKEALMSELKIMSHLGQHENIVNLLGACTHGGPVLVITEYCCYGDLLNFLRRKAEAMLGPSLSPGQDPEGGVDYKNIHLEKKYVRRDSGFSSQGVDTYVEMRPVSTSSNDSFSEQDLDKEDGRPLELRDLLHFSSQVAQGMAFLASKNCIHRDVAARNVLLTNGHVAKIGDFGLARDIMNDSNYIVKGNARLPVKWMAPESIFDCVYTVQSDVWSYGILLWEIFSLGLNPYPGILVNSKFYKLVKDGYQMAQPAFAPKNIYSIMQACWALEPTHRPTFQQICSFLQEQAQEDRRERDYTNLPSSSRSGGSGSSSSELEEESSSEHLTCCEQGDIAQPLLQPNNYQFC

MAP4K4 = MAP4K4 (Homo sapiens, UniProt O95819); test: AlphaScreen kinase assay, MAP4K4; settings: read-out: IC50, activity toward kinase MAP4K4
Flt1 = biological target: T5, Flt1 (Homo sapiens, UniProt P17948); test: AlphaScreen kinase assay, Flt1; settings: read-out: IC50, activity toward kinase Flt1
T5 construct: P1826.pETN6 BI-PTP FLT1 M799-D1165-X WT; His6 (N); made in house; host or cells: E. coli (PTP1B co-expressed)
T5 sequence (P17948 with tags, fused parts or gaps): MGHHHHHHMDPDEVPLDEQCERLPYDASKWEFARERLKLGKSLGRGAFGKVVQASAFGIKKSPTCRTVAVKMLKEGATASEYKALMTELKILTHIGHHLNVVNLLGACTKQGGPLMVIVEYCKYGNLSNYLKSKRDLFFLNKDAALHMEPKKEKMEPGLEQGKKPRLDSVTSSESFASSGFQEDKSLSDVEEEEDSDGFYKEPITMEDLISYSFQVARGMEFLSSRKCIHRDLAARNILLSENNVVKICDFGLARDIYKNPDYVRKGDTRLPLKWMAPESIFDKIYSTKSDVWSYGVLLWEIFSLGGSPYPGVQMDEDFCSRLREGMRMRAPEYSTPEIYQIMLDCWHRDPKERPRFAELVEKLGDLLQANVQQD

Jnk1 = biological target: T6, Jnk1 (Homo sapiens, UniProt P45983); test: AlphaScreen kinase assay, Jnk1; settings: read-out: IC50, activity toward kinase Jnk1
T6 construct: purchased Upstate Biotechnology
T6 sequence (P45983 whole entry): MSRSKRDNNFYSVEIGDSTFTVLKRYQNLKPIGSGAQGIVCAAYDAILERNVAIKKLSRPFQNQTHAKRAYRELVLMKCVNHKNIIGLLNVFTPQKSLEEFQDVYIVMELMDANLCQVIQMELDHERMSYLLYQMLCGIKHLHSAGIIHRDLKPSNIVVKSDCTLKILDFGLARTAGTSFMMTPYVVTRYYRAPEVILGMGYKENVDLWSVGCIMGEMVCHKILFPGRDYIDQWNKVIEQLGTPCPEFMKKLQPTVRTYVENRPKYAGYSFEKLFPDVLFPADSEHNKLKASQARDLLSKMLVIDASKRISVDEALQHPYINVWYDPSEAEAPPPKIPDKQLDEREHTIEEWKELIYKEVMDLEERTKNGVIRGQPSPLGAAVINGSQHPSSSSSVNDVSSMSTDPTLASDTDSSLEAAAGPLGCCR

B-Raf V600E = biological target: T7, B-Raf V600E (Homo sapiens, UniProt P15056, V600E); test: AlphaScreen kinase assay, B-Raf V600E; settings: read-out: IC50, activity toward kinase B-Raf V600E
T7 construct: P4254. pFastBacBD-CDC37 BRAF D437-K722-X, V600E; His6 with pFastBac HT leader (TEV site) (N); made in house; host or cells: Sf9 (baculovirus; chaperone CDC37 co-expressed)

FGFR1 = biological target: T8, FGFR1 (Homo sapiens, UniProt P11362, C488A/C584S); test: AlphaScreen kinase assay, FGFR1; settings: read-out: IC50, activity toward kinase FGFR
T8 construct: P1351.pET N6 BI-PTP FGFR A458-E765-X C488A, C584S; made in house; host or cells: E. coli (PTP1B co-expressed)
T8 sequence (P11362 458-765 C488A/C584S): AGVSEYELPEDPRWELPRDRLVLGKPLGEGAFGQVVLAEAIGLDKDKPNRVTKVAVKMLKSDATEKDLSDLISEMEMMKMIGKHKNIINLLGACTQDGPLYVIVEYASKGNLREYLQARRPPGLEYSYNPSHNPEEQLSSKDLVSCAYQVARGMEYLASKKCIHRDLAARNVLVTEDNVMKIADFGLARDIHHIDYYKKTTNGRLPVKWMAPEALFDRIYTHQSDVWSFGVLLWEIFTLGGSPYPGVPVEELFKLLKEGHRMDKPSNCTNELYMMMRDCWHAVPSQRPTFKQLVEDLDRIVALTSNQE

Src = biological target: T9, Src (Homo sapiens, UniProt P12931); test: AlphaScreen kinase assay, Src; settings: read-out: IC50, activity toward kinase Src
T9 construct: P1144. pET-N6 BI-PTP SRC V86-L536-X; made in house
T9 sequence (P12931 with tags, fused parts or gaps): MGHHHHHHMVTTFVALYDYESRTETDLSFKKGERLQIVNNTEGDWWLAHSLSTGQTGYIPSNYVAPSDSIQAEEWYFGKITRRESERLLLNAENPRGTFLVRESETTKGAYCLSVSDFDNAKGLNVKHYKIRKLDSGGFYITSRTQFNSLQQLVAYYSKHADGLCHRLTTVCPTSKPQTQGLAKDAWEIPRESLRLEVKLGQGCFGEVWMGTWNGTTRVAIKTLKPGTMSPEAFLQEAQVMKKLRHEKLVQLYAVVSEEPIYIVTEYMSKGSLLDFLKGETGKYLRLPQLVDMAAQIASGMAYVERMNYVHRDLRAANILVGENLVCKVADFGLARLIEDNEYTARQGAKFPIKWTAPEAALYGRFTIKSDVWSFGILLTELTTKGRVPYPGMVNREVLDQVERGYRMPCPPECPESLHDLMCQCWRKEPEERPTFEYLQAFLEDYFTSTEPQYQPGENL

Jnk3 = biological target: T10, Jnk3 (Homo sapiens, UniProt P53779); test: AlphaScreen kinase assay, Jnk3; settings: read-out: IC50, activity toward kinase Jnk3
T10 construct: purchased Upstate Biotechnology

Pyk2 = biological target: T11, Pyk2 (Homo sapiens, UniProt Q14289); test: AlphaScreen kinase assay, Pyk2; settings: read-out: IC50, activity toward kinase Pyk2
T11 construct: purchased Upstate Biotechnology
T11 sequence (Q14289 whole entry): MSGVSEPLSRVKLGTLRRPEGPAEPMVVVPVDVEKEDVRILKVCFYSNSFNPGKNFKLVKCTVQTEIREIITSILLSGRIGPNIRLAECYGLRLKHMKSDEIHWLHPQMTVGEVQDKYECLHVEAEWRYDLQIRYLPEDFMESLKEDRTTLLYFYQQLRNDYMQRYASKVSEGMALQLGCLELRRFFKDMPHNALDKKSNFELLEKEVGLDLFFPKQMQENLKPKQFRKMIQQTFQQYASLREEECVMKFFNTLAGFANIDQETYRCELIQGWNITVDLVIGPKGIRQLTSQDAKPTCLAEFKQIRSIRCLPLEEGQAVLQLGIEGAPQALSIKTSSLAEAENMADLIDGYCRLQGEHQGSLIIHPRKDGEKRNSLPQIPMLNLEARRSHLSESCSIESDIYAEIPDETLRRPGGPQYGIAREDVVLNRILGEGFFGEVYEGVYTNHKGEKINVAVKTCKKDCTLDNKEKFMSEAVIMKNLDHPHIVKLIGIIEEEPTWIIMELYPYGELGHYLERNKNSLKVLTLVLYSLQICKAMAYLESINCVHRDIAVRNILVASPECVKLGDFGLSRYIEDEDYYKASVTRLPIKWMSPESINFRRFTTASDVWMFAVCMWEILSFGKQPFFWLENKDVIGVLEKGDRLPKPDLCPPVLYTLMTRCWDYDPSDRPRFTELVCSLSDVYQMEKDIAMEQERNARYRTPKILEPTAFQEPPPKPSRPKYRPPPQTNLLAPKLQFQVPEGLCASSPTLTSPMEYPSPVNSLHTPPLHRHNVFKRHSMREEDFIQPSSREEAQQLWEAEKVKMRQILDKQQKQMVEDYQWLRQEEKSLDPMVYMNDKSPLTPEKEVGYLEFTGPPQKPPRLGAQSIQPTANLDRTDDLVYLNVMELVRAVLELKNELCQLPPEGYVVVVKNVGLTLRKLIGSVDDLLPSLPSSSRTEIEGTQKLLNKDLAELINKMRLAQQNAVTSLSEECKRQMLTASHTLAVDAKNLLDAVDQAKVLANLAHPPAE

Fak = biological target: T12, Fak (Homo sapiens, UniProt Q05397); test: AlphaScreen kinase assay, Fak; settings: read-out: IC50, activity toward kinase Fak
T12 construct: P1358.pFastBacHtb FAK S411-Q686-X; His6 with pFastBacHTb leader (TEV site) (N); made in house; host or cells: Sf9 (baculovirus)

Ret = biological target: T13, Ret (Homo sapiens, UniProt P07949); test: AlphaScreen kinase assay, Ret; settings: read-out: IC50, activity toward kinase Ret
T13 construct: P1378.pET-SF BI-PTP RET H661-R1012 HIS; made in house
T13 sequence (P07949 with tags, fused parts or gaps): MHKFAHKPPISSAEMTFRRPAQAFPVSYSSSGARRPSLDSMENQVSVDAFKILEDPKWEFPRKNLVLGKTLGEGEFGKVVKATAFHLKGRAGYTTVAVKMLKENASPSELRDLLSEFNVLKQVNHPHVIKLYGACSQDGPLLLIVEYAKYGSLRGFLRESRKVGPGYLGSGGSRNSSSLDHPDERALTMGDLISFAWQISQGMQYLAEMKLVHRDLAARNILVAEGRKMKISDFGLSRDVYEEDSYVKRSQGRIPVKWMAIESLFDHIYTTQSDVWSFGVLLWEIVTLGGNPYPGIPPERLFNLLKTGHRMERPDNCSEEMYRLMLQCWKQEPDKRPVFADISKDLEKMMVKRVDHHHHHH

Btk = biological target: T14, Btk (Homo sapiens, UniProt Q06187); test: Z'-Lyte FRET kinase assay (Invitrogen), Btk; settings: read-out: IC50, activity toward kinase Btk
T14 construct: purchased Invitrogen (assay run by Invitrogen)

Measured: pIC50

T1 sequence (P04049 whole entry): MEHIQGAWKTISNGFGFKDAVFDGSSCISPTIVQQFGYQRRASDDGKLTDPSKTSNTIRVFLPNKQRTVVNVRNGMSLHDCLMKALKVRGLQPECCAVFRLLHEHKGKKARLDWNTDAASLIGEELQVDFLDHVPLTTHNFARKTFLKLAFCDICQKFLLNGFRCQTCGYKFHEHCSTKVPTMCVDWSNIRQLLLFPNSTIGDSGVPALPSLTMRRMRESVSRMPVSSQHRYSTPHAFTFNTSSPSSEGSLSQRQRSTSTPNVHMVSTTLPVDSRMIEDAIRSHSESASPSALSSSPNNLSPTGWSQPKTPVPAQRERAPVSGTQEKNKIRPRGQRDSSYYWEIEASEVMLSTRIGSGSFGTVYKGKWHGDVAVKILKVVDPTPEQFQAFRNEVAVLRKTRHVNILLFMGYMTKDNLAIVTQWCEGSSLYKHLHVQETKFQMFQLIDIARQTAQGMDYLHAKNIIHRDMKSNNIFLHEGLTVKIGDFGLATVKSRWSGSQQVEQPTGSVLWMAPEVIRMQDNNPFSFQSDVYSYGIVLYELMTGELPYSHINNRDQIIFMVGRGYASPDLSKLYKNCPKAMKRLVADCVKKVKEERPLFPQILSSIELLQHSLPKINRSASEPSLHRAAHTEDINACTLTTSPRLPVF

Fc1ccc(Nc2ccnc3[nH]ccc23)cc1 [Compound P-1145]
≥ 5.00: c-Raf-1 | Akt3

COc1ccc(S(=O)(=O)Nc2ccc(F)c(C(=O)c3c[nH]c4ncccc34)c2F)cc1 [Compound P-0958, N-[2,4-Difluoro-3-(1H-pyrrolo[2,3-b]pyridine-3-carbonyl)-phenyl]-4-methoxy-benzenesulfonamide]
not listed: Jnk3 | Pyk2 | Fak | Ret | Btk
≥ 5.00: all other assays above

CCCOc1ccc(Nc2cnc3[nH]ccc3c2)cc1 [Compound P-1010]
≥ 5.00: Kit | Akt3 | Jnk3 | Flt1 | B-Raf V600E | Pyk2 | Src

CCOc1ccc(Nc2cnc3[nH]ccc3c2)cc1 [Compound P-1018]
≥ 5.00: Kit | Akt3 | Jnk3 | Flt1 | B-Raf V600E | FGFR1 | Pyk2

Clc1ccc(Nc2cnc3[nH]ccc3c2)cc1 [Compound P-1082]
≥ 5.00: Kit | Akt3 | Jnk3 | Flt1 | B-Raf V600E

Clc1cccc(Nc2ccnc3[nH]ccc23)c1 [Compound P-0924]
≥ 5.00: c-Raf-1 | Kit | B-Raf | Akt3 | Pyk2

O=C(c1c(F)ccc(NS(=O)(=O)N2CCCCC2)c1F)c1c[nH]c2ncccc12 [Compound P-0952, Piperidine-1-sulfonic acid [2,4-difluoro-3-(1H-pyrrolo[2,3-b]pyridine-3-carbonyl)-phenyl]-amide]
≥ 5.00: c-Raf-1 | Kit | B-Raf | Akt3 | Fms | B-Raf V600E | FGFR1 | Src

CCCS(=O)(=O)Nc1ccc(F)c(Cc2c[nH]c3ncc(C(C)C)cc23)c1F [Compound P-1288]
≥ 5.00: c-Raf-1 | B-Raf | Akt3 | Fak | Jnk1 | B-Raf V600E | FGFR1 | Pyk2 | Src

COC(c1ccc(NCc2ccc(Cl)cc2)nc1)c1c[nH]c2ncccc12 (stereo not drawn) [Compound P-0307]
≥ 5.00: c-Raf-1 | B-Raf | Ret | Akt3 | B-Raf V600E

Clc1ccc(Nc2ccnc3[nH]ccc23)cc1 [Compound P-0978]
≥ 5.00: c-Raf-1 | Kit | B-Raf | Akt3 | Pyk2

c1cc2cc(Nc3ccc4c(c3)OCCO4)cnc2[nH]1 [Compound P-1022]
≥ 5.00: Akt3 | Jnk3 | B-Raf V600E

CN(C)c1ccc(Nc2ccnc3[nH]ccc23)cc1 [Compound P-0890]
≥ 5.00: c-Raf-1 | Akt3

COc1ccc(-c2c[nH]c3ncccc23)cc1OC1CCCC1 [Compound P-0573]
≥ 5.00: Akt3 | MAP4K4 | B-Raf V600E

CN(C)c1cccc(Nc2ccnc3[nH]ccc23)c1 [Compound P-0861]
≥ 5.00: c-Raf-1 | Kit | B-Raf | Akt3 | B-Raf V600E | Pyk2

CCN(CC)c1ccc(Nc2ccnc3[nH]ccc23)cc1 [Compound P-0866]
≥ 5.00: c-Raf-1 | Kit | B-Raf | Akt3 | Flt1 | B-Raf V600E | Pyk2 | Src

CCOC(c1ccc(N(Cc2ccc(Cl)cc2)C(=O)OC(C)(C)C)nc1)c1c[nH]c2ncccc12 (stereo not drawn) [Compound P-1139]
≥ 5.00: Akt3 | B-Raf V600E

COc1ccc(Nc2cnc3[nH]ccc3c2)cc1Cl [Compound P-1021]
≥ 5.00: Kit | Akt3 | Jnk3 | Flt1 | Jnk1 | B-Raf V600E | FGFR1 | Src

NC(=O)c1cccc(-c2cnc3[nH]cc(C(=O)c4ccc(O)cc4F)c3c2)c1 [Compound P-1459]
≥ 5.00: B-Raf | Akt3 | Fms | Btk | Fak | Jnk1 | B-Raf V600E | FGFR1 | Src

CCCc1ccc(Nc2cnc3[nH]ccc3c2)cc1 [Compound P-1043]
≥ 5.00: Akt3 | B-Raf V600E

COc1cccc(C(=O)c2c[nH]c3nccc(-c4cccc(C(N)=O)c4)c23)c1 [Compound P-0329]
≥ 5.00: Ret | Akt3 | FGFR1

CC(=O)c1cccc(Nc2ccnc3[nH]ccc23)c1 [Compound P-1027]
≥ 5.00: c-Raf-1 | B-Raf | Akt3 | Flt1 | FGFR1

c1cc2cc(Nc3ccc4ncsc4c3)cnc2[nH]1 [Compound P-1040]
≥ 5.00: Akt3

c1ccc(Nc2ccnc3[nH]ccc23)cc1 [Compound P-1224]
≥ 5.00: Akt3

c1cc(Nc2ccc(-c3cnco3)cc2)c2cc[nH]c2n1 [Compound P-1147]
≥ 5.00: Akt3 | Flt1

Fc1cccc(Nc2ccnc3[nH]ccc23)c1 [Compound P-1047]
≥ 5.00: c-Raf-1 | Akt3

O=C(NCc1ccccc1)c1ccc(-c2c[nH]c3ncccc23)cc1 [Compound P-0278]
≥ 5.00: Akt3 | Flt1
